Structures can show the parent of a compound that is named as a salt. Where two headings read alike, the source gives them in different places.

One experiment concerns the target T1, h P2X2/3 (Homo sapiens, UniProt P56373+Q9UBL9).
T1 construct: host or cells: cells not described; same protocol as the P2X3 assay
T1 sequence (P56373 1-397): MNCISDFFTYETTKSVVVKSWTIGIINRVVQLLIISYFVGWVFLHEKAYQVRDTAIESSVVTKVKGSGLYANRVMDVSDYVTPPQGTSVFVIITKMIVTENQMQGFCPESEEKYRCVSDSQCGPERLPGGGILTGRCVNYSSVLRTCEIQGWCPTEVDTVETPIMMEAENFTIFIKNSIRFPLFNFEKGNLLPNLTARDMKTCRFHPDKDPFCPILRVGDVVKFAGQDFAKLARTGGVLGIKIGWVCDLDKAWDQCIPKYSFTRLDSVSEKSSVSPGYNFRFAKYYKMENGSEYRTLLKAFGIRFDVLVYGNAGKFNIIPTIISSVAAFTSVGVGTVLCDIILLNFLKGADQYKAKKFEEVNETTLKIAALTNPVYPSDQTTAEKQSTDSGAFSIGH
T1 sequence (Q9UBL9 1-471): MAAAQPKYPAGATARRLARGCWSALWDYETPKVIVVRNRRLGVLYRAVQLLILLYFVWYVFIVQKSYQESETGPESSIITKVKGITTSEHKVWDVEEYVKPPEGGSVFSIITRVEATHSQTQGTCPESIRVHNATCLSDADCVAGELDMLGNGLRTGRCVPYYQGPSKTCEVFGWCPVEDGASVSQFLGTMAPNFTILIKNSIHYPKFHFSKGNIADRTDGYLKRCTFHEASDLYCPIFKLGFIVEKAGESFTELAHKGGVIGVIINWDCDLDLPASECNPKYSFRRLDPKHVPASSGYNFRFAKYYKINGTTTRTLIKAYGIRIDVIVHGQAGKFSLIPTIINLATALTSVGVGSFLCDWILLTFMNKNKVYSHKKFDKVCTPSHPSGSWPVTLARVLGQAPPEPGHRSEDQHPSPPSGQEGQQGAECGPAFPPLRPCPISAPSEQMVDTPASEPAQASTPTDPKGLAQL
Put plainly: In vitro electrophysiology assay for P2X2/3 (same protocol, 10 μM ATP agonist). The class given is cell-based. As to conditions: Table 3, mean current seven seconds after agonist, read-out: h P2X2/3 (pIC50 range of activity) (converted). The procedure:
Cells expressing P2X3 receptors were grown according to standard practice and maintained at 37° C. in a 5% humidified CO2 atmosphere. The cells were seeded into T175 flask 2 days prior to the day of the assay and dissociated from the flasks using TrypLE when grown to confluence of 80-90%. The dissociated cells were resuspended in serum free media at a cell density of 3×10^6 cells/ml and loaded onto the Sophion Qube automated patch-clamp system. The extracellular assay buffer contained 145 mM NaCl, 4 mM KCl, 2 mM CaCl2, 1 mM MgCl2, 10 mM HEPES, and 10 mM glucose at pH 7.4. The intracellular assay solution contained 140 mM CsF, 10 mM NaCl, 10 mM EGTA, 10 mM HEPES at pH 7.2. Agonist stock solutions were prepared in H2O and diluted in bath solution prior to use. All antagonists were prepared as 10 mM stock solutions in DMSO and diluted in bath solution prior to use. All experiments were performed under the whole-cell patch clamp configuration at room temperature with 384 individual cells being voltage clamped at −60 mV simultaneously on the Sophion Qube instrument. Two baseline responses were established with the application of α,β-MeATP (800 nM), with the subsequent agonist applications being washed out using extracellular assay buffer containing 0.5 U/ml apyrase. Following the second agonist application, antagonist was incubated in the absence of α,β-MeATP for 10 minutes. After antagonist preincubation, 800 nM α,β-MeATP and antagonist were co-administered to determine the inhibitory effect of the antagonist. One concentration of an antagonist was assessed against a single cell, with different concentrations of the antagonist applied to other cells on the 384 recording substrate. The control P2X3 current amplitude was taken from the peak current amplitude from the second agonist response prior to preincubation with antagonist. The peak P2X3 current amplitude in the presence of antagonist was used to calculate the inhibitory effect at each concentration of the antagonist according to the following equation: […]
In vitro Electrophysiology Assay for P2X2/3
Representative compound of the present invention have been also tested for P2X2/3 receptor.
The same assay protocol was used for the P2X2/3 assay as the P2X3 assay with two modifications: 1) 10 μM ATP was used as the agonist; and 2) the mean current amplitude was measured seven seconds after the application of agonist.

In another experiment the target is T2, h P2X3 (Homo sapiens, UniProt P56373).
T2 sequence (P56373 1-397): T1 sequence (P56373 1-397)
Nature of the experiment: In vitro electrophysiology assay for P2X3 (automated whole-cell patch clamp, α,β-MeATP agonist). It counts as cell-based. As to conditions: 800 nM α,β-MeATP, peak current, read-out: h P2X3 (pIC50 range of activity) (converted). The method in brief:
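Automated whole-cell patch clamp of P2X3-expressing cells at −60 mV, room temperature, pH 7.4 bath with CsF internal solution. Antagonist preincubated 10 min, then co-applied with 800 nM α,β-MeATP; peak current inhibition versus second agonist response, ten concentrations, IC50 from four-parameter fit.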

Turning to `COC(=O)C1(NC(=O)COc2cc(-c3ccc(F)cc3)cc3c(N[C@H](C)c4cnc(C(F)(F)F)nc4)ncnc23)CC1` [Example 43, Methyl (R)-1-(2-((6-(4-fluorophenyl)-4-((1-(2-(trifluoromethyl)pyrimidin-5-yl)ethyl)amino)quinazolin-8-yl)oxy)acetamido) cyclopropane-1-carboxylate], the values for the IC50 on h P2X2/3, on h P2X3 (Table 2) and at h P2X3 (Table 3) were 3.16 to 31.6 µM, 0.316 to 3.16 µM and 0.316 to 3.16 µM, respectively.
Regarding `C[C@@H](Nc1ncnc2c(OCC3(C(=O)O)CCNCC3)cc(-c3ccc(F)cc3)cc12)c1cnc(C(F)(F)F)nc1` [Example 47, (R)-4-(((6-(4-fluorophenyl)-4-((1-(2-(trifluoromethyl)pyrimidin-5-yl)ethyl)amino)quinazolin-8-yl)oxy)methyl)piperidine-4-carboxylic acid hydrochloride], the IC50 is 3.16 to 31.6 µM at h P2X2/3, 0.316 to 3.16 µM on h P2X3 (Table 2) and 0.316 to 3.16 µM at h P2X3 (Table 3).
With `Cc1ccc(CNc2ncnc3c(OCc4nnc(C5CC5)o4)cc(-c4ccc(F)cc4)cc23)nn1` [Example 62, 8-((5-cyclopropyl-1,3,4-oxadiazol-2-yl)methoxy)-6-(4-fluorophenyl)-N-((6-methylpyridazin-3-yl)methyl)quinazolin-4-amine], the IC50 is 0.316 to 3.16 µM at h P2X2/3, below 0.316 µM at h P2X3 (Table 2) and below 0.316 µM on h P2X3 (Table 3).
For the molecule `COC(=O)N1CCC(Oc2cc(-c3ccc(F)cc3)cc3c(NCc4ccc(C)nn4)ncnc23)CC1` [Example 65, Methyl 4-[6-(4-fluorophenyl)-4-[(6-methylpyridazin-3-yl)methylamino]quinazolin-8-yl]oxypiperidine-1-carboxylate], the results for the IC50 on h P2X2/3, at h P2X3 (Table 2) and on h P2X3 (Table 3) were 3.16 to 31.6 µM, 0.316 to 3.16 µM and 0.316 to 3.16 µM, respectively.
As for `COC(=O)N1CCC(Oc2cc(-c3ccc(F)cc3)cc3c(NCc4ccc(C)nn4)ncnc23)C1` (stereo not drawn) [Example 68, Methyl 3-[6-(4-fluorophenyl)-4-[(6-methylpyridazin-3-yl)methylamino]quinazolin-8-yl]oxypyrrolidine-1-carboxylate], the IC50 was 3.16 to 31.6 µM on h P2X2/3, 0.316 to 3.16 µM at h P2X3 (Table 2) and 0.316 to 3.16 µM at h P2X3 (Table 3).
